Reference: publication PMC10412636, “An analysis of interactions between three structurally diverse anthocyanidins, as well as their glucosides, and model biological membranes, albumin, and plasmid DNA” (Scientific Reports, 2023)

Tests used:
[1] = DPH fluorescence quenching, dissociation constant with MM liposome membrane; format: binding; conditions: 37 °C
Method: (§1) Two types of liposomes were used to study interactions with biological membranes: liposomes mimicking the composition of cancer cell membranes (mimic membrane liposome—MM) and liposomes formed from lipids extracted from human blood erythrocyte membranes (red blood cell membrane liposome—RBCM). […] Both lipids, dissolved in chloroform (MM liposome) and n-decane (RBCM liposome), were evaporated under a nitrogen atmosphere, and then dried in a desiccator for 90 min under a vacuum. The obtained dry lipid film was hydrated in phosphate buffer, pH 7.4, obtaining a concentration of 0.1 mg/ml, and then vortexed for one minute until a homogeneous, milky suspension was observed. The mixture was sonicated (Sonic, Milano, Italia) for 15 min keeping the sample in a bath of ice water, thus providing a cooling temperature of 0 °C. The suspension was then processed (extrusion) through polycarbonate filters with pore diameters of 100 and 200 nm using a Lipex extruder (Evonik). Liposomes, which had been prepared according to this procedure, was used in fluorimetric studies.
(§2) The phenomenon of quenching the fluorescence of the DPH probe by biologically active substances enabled us to evaluate the partition coefficient (Kd, dissociation constant) of anthocyanins with both MM and RBCM liposome membranes. For this purpose, changes in the fluorescence intensity of this probe were checked and the coefficient was calculated using the equation[48]:2 1/F0/F-1=Kd/[liposomes]×1/[anthocyanins]+1/liposomes where F0—fluorescence intensity in the absence of anthocyanins (control sample), F—fluorescence intensity in the presence of anthocyanins, [liposomes]—concentration of liposomes in mg/ml, [anthocyanins]—concentration of anthocyanins tested mg/ml.
(§3) Liposomes (the concentration of lipids in the sample was 0.1 mg/ml) were incubated for 30 min with the appropriate probe (dissolved in DMF, 1 µM concentration), and then the tested anthocyanins were added (final concentration of 1 to 30 µM). The control sample consisted of liposomes and a fluorescent probe. Fluorescence was measured on a fluorimeter (Cary Eclipse, Varian, San Diego, USA) at 37 °C. The excitation wavelengths λex and emission wavelengths λem respectively: MC540—λexc = 540 nm, λem = 590 nm; DPH—λexc = 360 nm, λem = 425 nm. nm; TMA-DPH—λexc = 340 nm, λem = 430 nm.

[2] = MC540 probe fluorescence intensity in MM liposomes; conditions: 37 °C, positive = decrease
Method: as §1
(§4) To investigate these properties three fluorescent probes were used: MC540, TMA-DPH, and DPH. MC540 localizes to the outer, hydrophilic part of the membrane, within the region of the glycerol skeleton[44]. Changes in the fluorescence intensity of this probe were formulated as the relative change in intensity to the control as a function of anthocyanins concentration. The TMA-DPH and DPH probes are supposed to locate nearer to the interface and in the hydrophobic region, respectively[45]. The measurement of changes in the anisotropy of the TMA-DPH and DPH probes allowed us to reflect the mobility of the fluorescent probes in the membrane, and therefore to determine the fluidity of the bilayer[46]. Fluorescence anisotropy was calculated using the formula[47]:1 A=I‖-GI⊥/I‖+2GI⊥ where I‖ and I⊥ are the intensity of fluorescence in parallel and perpendicular directions, to the plane of polarization of the excitation wave, respectively. G is an apparatus constant that depends on the emission wavelength.
as §3

[3] = TMA-DPH probe fluorescence anisotropy in MM liposomes; conditions: negative = increase in anisotropy
pHbApr-1-Neo plasmid DNA = assay: TCSPC-FCS of PicoGreen-labelled plasmid DNA with anthocyanins; format: binding
Method: To evaluate the biological interaction with DNA molecules the anthocyanins were initially dissolved in ETOH (1 mM). […] Mixing of such solutions with the aqueous DNA solutions used in the studies never exceeded 1% concentration ETOH (v/v) in the final solution. The DNA plasmid was labelled by PicoGreen (CPicoGreen/CDNAbp = 0.02)[52]. The pHbApr-1-Neo plasmid (10 kbp and contour length 3.4 µm) was a generous gift from the laboratory of Prof. Maciej Ugorski (Department of Biochemistry and Molecular Biology, Wrocław University of Environmental and Life Sciences Wroclaw, Poland). PicoGreen-labelled DNA samples mixed with the appropriate amount of anthocyanins were left overnight and then measured. The increasing concentration of anthocyanins in the tested samples was expressed as the ratio of the molar concentration of anthocyanins per molar concentration of DNA base pairs in a given sample (comp/bp). The 100 µl samples were measured in Ibidi 8-well chambers. Each point on the graph is a single sample (average of 10 measurements). All measurements were performed at room temperature (25 °C). Time-correlated single-photon counting fluorescence correlation spectroscopy (TCSPC-FCS) was used to study the interaction of plasmid DNA at the single molecule level with all tested anthocyanins. […] Low power of 1uW (at the back aperture of the objective) was chosen to minimize photobleaching and saturation. In the detection plane, a pinhole (50um in diameter) was used and the signal was collected by a single photon avalanche diode (SPAD, Microphoton Devices, Bolzano, Italy). Photon arrival times were stored using fast electronics (Picoharp 300, PicoQuant) in time-tagged time-resolved recording mode. Two independent times were assigned to each detected photon: (1) a time after the beginning of the measurement and (2) a time after the previous laser pulse. The FCS data analysis was done using home-built routines (DevC++, Bloodshed Software and OriginPro70, OriginLab Corporation). The TCSPC data analysis was performed using SymPhoTime software (PicoQuant). Further details of the data evaluation are given elsewhere.

[4] = TMA-DPH probe fluorescence anisotropy in RBCM liposomes; set-up: species or system human; conditions: negative = increase in anisotropy
Source text: Two types of liposomes were used to study interactions with biological membranes: liposomes mimicking the composition of cancer cell membranes (mimic membrane liposome—MM) and liposomes formed from lipids extracted from human blood erythrocyte membranes (red blood cell membrane liposome—RBCM). […] The RBCM liposome was according to the methodology described previously[42] with minor modifications[43]. Both lipids, dissolved in chloroform (MM liposome) and n-decane (RBCM liposome), were evaporated under a nitrogen atmosphere, and then dried in a desiccator for 90 min under a vacuum. The obtained dry lipid film was hydrated in phosphate buffer, pH 7.4, obtaining a concentration of 0.1 mg/ml, and then vortexed for one minute until a homogeneous, milky suspension was observed. The mixture was sonicated (Sonic, Milano, Italia) for 15 min keeping the sample in a bath of ice water, thus providing a cooling temperature of 0 °C. The suspension was then processed (extrusion) through polycarbonate filters with pore diameters of 100 and 200 nm using a Lipex extruder (Evonik). Liposomes, which had been prepared according to this procedure, was used in fluorimetric studies.
To investigate these properties three fluorescent probes were used: MC540, TMA-DPH, and DPH. MC540 localizes to the outer, hydrophilic part of the membrane, within the region of the glycerol skeleton[44]. […] The TMA-DPH and DPH probes are supposed to locate nearer to the interface and in the hydrophobic region, respectively[45]. The measurement of changes in the anisotropy of the TMA-DPH and DPH probes allowed us to reflect the mobility of the fluorescent probes in the membrane, and therefore to determine the fluidity of the bilayer[46]. Fluorescence anisotropy was calculated using the formula[47]:1 A=I‖-GI⊥/I‖+2GI⊥ where I‖ and I⊥ are the intensity of fluorescence in parallel and perpendicular directions, to the plane of polarization of the excitation wave, respectively. G is an apparatus constant that depends on the emission wavelength.
as §3

[5] = DPH fluorescence quenching, dissociation constant with RBCM liposome membrane; format: binding, human; conditions: 37 °C
Method: as §1, §2, §3

[6] = biological target: human serum albumin (HSA) (Homo sapiens, UniProt P02768); assay: Quenching of natural fluorescence of human serum albumin; format: binding; conditions: HSA […] 10^–5 M, 37 °C
human serum albumin (HSA), sequence (P02768 25-609): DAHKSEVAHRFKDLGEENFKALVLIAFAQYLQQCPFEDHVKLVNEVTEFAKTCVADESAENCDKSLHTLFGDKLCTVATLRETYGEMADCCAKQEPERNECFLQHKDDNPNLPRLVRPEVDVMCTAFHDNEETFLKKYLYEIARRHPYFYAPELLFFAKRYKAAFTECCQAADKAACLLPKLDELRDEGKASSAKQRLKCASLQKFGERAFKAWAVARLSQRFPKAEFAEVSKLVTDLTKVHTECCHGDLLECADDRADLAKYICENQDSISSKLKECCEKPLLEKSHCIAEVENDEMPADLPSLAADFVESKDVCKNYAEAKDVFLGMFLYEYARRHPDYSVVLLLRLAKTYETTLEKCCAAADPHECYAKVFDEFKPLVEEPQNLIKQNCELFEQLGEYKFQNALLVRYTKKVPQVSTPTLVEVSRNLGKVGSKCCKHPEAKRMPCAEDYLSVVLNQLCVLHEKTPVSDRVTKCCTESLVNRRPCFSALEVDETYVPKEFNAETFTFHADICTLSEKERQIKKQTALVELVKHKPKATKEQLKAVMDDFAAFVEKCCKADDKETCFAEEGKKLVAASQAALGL
Method: The phenomenon of quenching the natural fluorescence of human serum albumin (HSA) was used to investigate the potential interaction of anthocyanins with this protein. […] Anthocyanins with concentrations ranging from 1 to 30 µM were added to HSA dissolved in phosphate buffer (1.5 × 10^–5 M) and then incubated at 37 °C for 20 min. Emission spectra were performed on a fluorimeter Cary Eclipse (Varian, San Diego, USA) at 37 °C. HSA fluorescence was excited with a wavelength of λ = 280 nm, the emission was measured in the range from 286 to 460 nm, and the fluorescence intensity was read at 345 nm where the emission maximum of HSA was located.
The Stern–Volmer equation was used to thoroughly describe the quenching mechanism of natural fluorescence and to determine the bindings parameters of HSA: anthocyanin complexes:4 F0/F=1+Kqτ0Q=1+KSV[Q] where F0—fluorescence intensity in the absence of anthocyanins (control sample), F—fluorescence intensity in the presence of anthocyanins, KSV—Stern–Volmer quenching constant (KSV = Kq·τ0), [Q]—concentration of quencher (tested compound), Kq—bimolecular quenching constant, τ0—a lifetime of the fluorophore in the absence of quencher the fluorescence lifetime of a biopolymer is calculated as 5 × 10^–9 s[51].
The apparent binding constants (Kb) and the number of binding sites (n) can be calculated using the following equation:5 log(F0-F/F]=logKb+nlog[Q]
F0 and F are the fluorescence intensities before and after the addition of the quencher. From the linear plot of log (F0 − F)/F versus log [Q], the value of Kb was obtained from the intercept.

[7] = DPH probe fluorescence anisotropy in MM liposomes; conditions: for Changes in DPH anisotropy relative to the control: MM, negative = increase in anisotropy
Method: as §1, §4, §3

[8] = DPH probe fluorescence anisotropy in RBCM liposomes; set-up: species or system human; conditions: for Changes in DPH anisotropy relative to the control: RBCM, negative = increase in anisotropy
Method: as §1, §4, §3

[9] = MC540 probe fluorescence intensity in RBCM liposomes; set-up: species or system human; conditions: 37 °C, positive = decrease
Method: as §1, §4, §3

Kd [1]: 10.4 ± 2.45 µM
Kd [5]: 15.3 ± 4.01 µM
Stern Volmer constant KSV [6]: 25.99 ± 1.77 × 10^3 M^−1
number of binding sites n [6]: 1.03 ± 0.03
Compound: COc1cc(-c2[o+]c3cc(O)cc(O)c3cc2O)cc(O)c1O [Pt, Petunidin]
Changes in MC540 fluorescence intensity relative to the control ([2]; 1 µM): 17.63±1.11%
Changes in MC540 fluorescence intensity relative to the control ([2]; 5 µM): 36.62±1.63%
Changes in MC540 fluorescence intensity relative to the control ([2]; 10 µM): 50.22±5.62%
Changes in MC540 fluorescence intensity relative to the control ([2]; 20 µM): 64.46±7.12%
Changes in MC540 fluorescence intensity relative to the control ([2]; 30 µM): 72.51±3.32%
Changes in MC540 fluorescence intensity relative to the control ([2]; 30 µM, listed as petunidin): 72.5 ± 3.3%
Changes in TMA-DPH anisotropy relative to the control ([3]; 1 µM): -5.05±0.11%
Changes in TMA-DPH anisotropy relative to the control ([3]; 5 µM): -4.34±0.09%
Changes in TMA-DPH anisotropy relative to the control ([3]; 10 µM): -2.97±0.04%
Changes in TMA-DPH anisotropy relative to the control ([3]; 20 µM): -5.53±0.11%
Changes in TMA-DPH anisotropy relative to the control ([3]; 30 µM): -5.92±0.33%
lifetime (LT) (pHbApr-1-Neo plasmid DNA; comp/bp from 0 to 5, continuous decrease from 4.25 ns): 2.3 ns
Particle Number (PN) (pHbApr-1-Neo plasmid DNA; comp/bp from 0 to 5, continuous decrease from 5.0): about 0
changes in plasmid tD, lower compared to those obtained for Pt 3-glc (pHbApr-1-Neo plasmid DNA; comp/bp up to 0.8): ~3.5 fold
decrease in the diffusion time (tD) (pHbApr-1-Neo plasmid DNA; tested range of comp/bp from 0 to 5): 3.5 fold
Changes in TMA-DPH anisotropy relative to the control ([4]; 1 µM): -4.68±0.23%
Changes in TMA-DPH anisotropy relative to the control ([4]; 5 µM): -0.95±0.03%
Changes in TMA-DPH anisotropy relative to the control ([4]; 10 µM): -1.05±0.03%
Changes in TMA-DPH anisotropy relative to the control ([4]; 20 µM): 1.13±0.07%
Changes in TMA-DPH anisotropy relative to the control ([4]; 30 µM): 0.70±0.02%
highest percentage of an increase in DPH anisotropy relative to the control ([7]; MM liposome, 20 µM): 17.6 ± 0.4%
Changes in DPH anisotropy relative to the control ([7]; 1 µM): -13.00±0.31%
Changes in DPH anisotropy relative to the control ([7]; 5 µM): -15.66±0.33%
Changes in DPH anisotropy relative to the control ([7]; 10 µM): -17.48±0.09%
Changes in DPH anisotropy relative to the control ([7]; 20 µM): -17.59±0.36%
Changes in DPH anisotropy relative to the control ([7]; 30 µM): -14.74±0.10%
highest percentage of an increase in DPH anisotropy relative to the control ([8]; RBCM liposome, 20 µM): 10.5 ± 0.7%
Changes in DPH anisotropy relative to the control ([8]; 1 µM): -9.91±0.36%
Changes in DPH anisotropy relative to the control ([8]; 5 µM): -8.46±0.42%
Changes in DPH anisotropy relative to the control ([8]; 10 µM): -10.18±0.39%
Changes in DPH anisotropy relative to the control ([8]; 20 µM): -10.51±0.67%
Changes in DPH anisotropy relative to the control ([8]; 30 µM): -9.21±0.62%
Changes in MC540 fluorescence intensity relative to the control ([9]; 1 µM): 16.68±0.58%
Changes in MC540 fluorescence intensity relative to the control ([9]; 5 µM): 32.60±0.15%
Changes in MC540 fluorescence intensity relative to the control ([9]; 10 µM): 43.35±1.60%
Changes in MC540 fluorescence intensity relative to the control ([9]; 20 µM): 55.02±1.41%
Changes in MC540 fluorescence intensity relative to the control ([9]; 30 µM): 61.93±1.58%
Changes in MC540 fluorescence intensity relative to the control ([9]; 30 µM, listed as petunidin): 61.9 ± 1.6%
